Assay results reported in the NIST ThermoML archive (doi:10.1021/je501041r).
± gives the expanded uncertainty stated by the source.

Experiment: xn = mol fraction of the nth substance listed
Conditions: 101 kPa, Liquid; for viscosity: Capillary tube (Ostwald / Ubbelohde) method; for mass density: Vibrating tube method

CCCCCCCO [heptan-1-ol] + CC(C)CC(C)(C)C
Conditions	mass density [kg/m3]	viscosity [mPa·s]
298.15 K, x2 = 0	818.82 ± 2	6.004 ± 0.073
298.15 K, x2 = 0.1003	804.69 ± 2	4.442 ± 0.054
298.15 K, x2 = 0.2002	790.62 ± 2	3.258 ± 0.039
298.15 K, x2 = 0.3002	776.7 ± 2	2.408 ± 0.029
298.15 K, x2 = 0.3999	763.07 ± 2	1.793 ± 0.021
298.15 K, x2 = 0.5	749.79 ± 2	1.349 ± 0.016
298.15 K, x2 = 0.6	736.64 ± 2	1.059 ± 0.013
298.15 K, x2 = 0.6999	723.94 ± 2	0.827 ± 0.01
298.15 K, x2 = 0.7999	711.51 ± 2	0.672 ± 0.008
298.15 K, x2 = 0.8999	699.33 ± 2	0.557 ± 0.007
298.15 K, x2 = 0.92	697.03 ± 2	–
298.15 K, x2 = 0.94	694.61 ± 2	–
298.15 K, x2 = 0.9599	692.3 ± 2	–
303.15 K, x2 = 0	815.3 ± 2	5.079 ± 0.062
303.15 K, x2 = 0.1003	801.1 ± 2	3.807 ± 0.046
303.15 K, x2 = 0.2002	786.96 ± 2	2.834 ± 0.034
303.15 K, x2 = 0.3002	772.96 ± 2	2.126 ± 0.025
303.15 K, x2 = 0.3999	759.26 ± 2	1.597 ± 0.019
303.15 K, x2 = 0.5	745.92 ± 2	1.224 ± 0.015
303.15 K, x2 = 0.6	732.7 ± 2	0.988 ± 0.012
303.15 K, x2 = 0.6999	719.94 ± 2	0.782 ± 0.009
303.15 K, x2 = 0.7999	707.45 ± 2	0.627 ± 0.007
303.15 K, x2 = 0.8999	695.21 ± 2	0.524 ± 0.006
303.15 K, x2 = 0.92	692.88 ± 2	–
303.15 K, x2 = 0.94	690.48 ± 2	–
303.15 K, x2 = 0.9599	688.17 ± 2	–
308.15 K, x2 = 0	811.75 ± 2	4.374 ± 0.054
308.15 K, x2 = 0.1003	797.48 ± 2	3.283 ± 0.04
308.15 K, x2 = 0.2002	783.26 ± 2	2.518 ± 0.03
308.15 K, x2 = 0.3002	769.2 ± 2	1.881 ± 0.023
308.15 K, x2 = 0.3999	755.43 ± 2	1.437 ± 0.017
308.15 K, x2 = 0.5	742.02 ± 2	1.13 ± 0.013
308.15 K, x2 = 0.6	728.74 ± 2	0.913 ± 0.011
308.15 K, x2 = 0.6999	715.91 ± 2	0.714 ± 0.008
308.15 K, x2 = 0.7999	703.35 ± 2	0.587 ± 0.007
308.15 K, x2 = 0.8999	691.05 ± 2	0.496 ± 0.006
308.15 K, x2 = 0.92	688.71 ± 2	–
308.15 K, x2 = 0.94	686.3 ± 2	–
308.15 K, x2 = 0.9599	683.98 ± 2	–
313.15 K, x2 = 0	808.17 ± 2	3.8 ± 0.047
313.15 K, x2 = 0.1003	793.83 ± 2	2.875 ± 0.035
313.15 K, x2 = 0.2002	779.54 ± 2	2.217 ± 0.027
313.15 K, x2 = 0.3002	765.4 ± 2	1.679 ± 0.02
313.15 K, x2 = 0.3999	751.57 ± 2	1.298 ± 0.016
313.15 K, x2 = 0.5	738.08 ± 2	1.018 ± 0.012
313.15 K, x2 = 0.6	724.74 ± 2	0.825 ± 0.01
313.15 K, x2 = 0.6999	711.84 ± 2	0.67 ± 0.008
313.15 K, x2 = 0.7999	699.22 ± 2	0.55 ± 0.007
313.15 K, x2 = 0.8999	686.85 ± 2	0.465 ± 0.006
313.15 K, x2 = 0.92	684.51 ± 2	–
313.15 K, x2 = 0.94	682.09 ± 2	–
313.15 K, x2 = 0.9599	679.77 ± 2	–
318.15 K, x2 = 0	804.57 ± 2	3.224 ± 0.04
318.15 K, x2 = 0.1003	790.15 ± 2	2.503 ± 0.031
318.15 K, x2 = 0.2002	775.79 ± 2	1.979 ± 0.024
318.15 K, x2 = 0.3002	761.58 ± 2	1.501 ± 0.018
318.15 K, x2 = 0.3999	747.67 ± 2	1.176 ± 0.014
318.15 K, x2 = 0.5	734.12 ± 2	0.934 ± 0.011
318.15 K, x2 = 0.6	720.71 ± 2	0.758 ± 0.009
318.15 K, x2 = 0.6999	707.74 ± 2	0.623 ± 0.007
318.15 K, x2 = 0.7999	695.05 ± 2	0.517 ± 0.006
318.15 K, x2 = 0.8999	682.63 ± 2	0.439 ± 0.005
318.15 K, x2 = 0.92	680.27 ± 2	–
318.15 K, x2 = 0.94	677.84 ± 2	–
318.15 K, x2 = 0.9599	675.52 ± 2	–
323.15 K, x2 = 0	800.93 ± 2	2.851 ± 0.035
323.15 K, x2 = 0.1003	786.43 ± 2	2.209 ± 0.027
323.15 K, x2 = 0.2002	772 ± 2	1.754 ± 0.021
323.15 K, x2 = 0.3002	757.71 ± 2	1.351 ± 0.016
323.15 K, x2 = 0.3999	743.74 ± 2	1.071 ± 0.013
323.15 K, x2 = 0.5	730.12 ± 2	0.859 ± 0.01
323.15 K, x2 = 0.6	716.64 ± 2	0.699 ± 0.008
323.15 K, x2 = 0.6999	703.6 ± 2	0.592 ± 0.007
323.15 K, x2 = 0.7999	690.85 ± 2	0.487 ± 0.006
323.15 K, x2 = 0.8999	678.37 ± 2	0.416 ± 0.005
323.15 K, x2 = 0.92	675.99 ± 2	–
323.15 K, x2 = 0.94	673.57 ± 2	–
323.15 K, x2 = 0.9599	671.24 ± 2	–
